The source of these data is PubChem BioAssay AID206 (DTP/NCI, 2004).

Records with an inconclusive call do not appear.

This assay relates to nude mice, HT29 intrarenal xenograft, tumor weight T/C. Nature of the assay: NCI In Vivo Anticancer Drug Screen. Data for tumor model HT29;CX-1 Human Adenocarcinoma (MER+) (intrarenal inoculation) in NU/NU Swiss (nude) mice. To be noted: endpoint: mean tumor weight change, higher = larger tumour. Summed up: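 Mice with transplanted tumors are dosed with compound while controls get vehicle only. Survival or tumor burden is then assessed per group, and the treated value is expressed relative to control.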

[1] abbreviates: dose: 50.0 mg/kg/injection, schedule: Q04DX004 (sc), vehicle: saline.
[2] abbreviates: dose: 100.0 mg/kg/injection, schedule: Q04DX004 (sc), vehicle: saline.
Setting [3] is: dose: 200.0 mg/kg/injection, schedule: Q04DX004 (sc), vehicle: saline.
The mark [4] stands for this setting: dose: 100.0 mg/kg/injection, schedule: Q04DX004 (sc), vehicle: Klucel (hydroxypropylcellulose) (HPC).

In the case of `BrC1CC(Br)c2c1c1c(c3c2C(Br)CC3Br)C(Br)CC1Br` (centres undefined), the T/C (dose: 225.0 mg/kg/injection, schedule: Q04DX004 (sc), vehicle: water) is 76 % of control; the T/C (dose: 300.0 mg/kg/injection, schedule: Q04DX004 (sc), vehicle: water) is 84 % of control; the T/C (dose: 450.0 mg/kg/injection, schedule: Q04DX004 (sc), vehicle: water) was 157 % of control; the T/C (dose: 900.0 mg/kg/injection, schedule: Q04DX004 (sc), vehicle: water) was 158 % of control; the T/C (dose: 1200.0 mg/kg/injection, schedule: Q04DX004 (sc), vehicle: water) is 116 % of control; the T/C (dose: 1800.0 mg/kg/injection, schedule: Q04DX004 (sc), vehicle: water) was 22 % of control.

On to `COc1cccc2c1C(=O)c1c(O)c3c(c(O)c1C2=O)C[C@@](O)(/C(C)=N/NC(=O)c1ccccc1)C[C@@H]3OC1CC(N)C(O)C(C)O1` (some centres undefined), for which the T/C (dose: 18.75 mg/kg/injection, schedule: Q04DX004 (sc), vehicle: water) is 117 % of control and the T/C (dose: 37.5 mg/kg/injection, schedule: Q04DX004 (sc), vehicle: water) is 123 % of control.

For `c1cc(-c2cc3ccc(C4=NCCN4)cc3[nH]2)ccc1C1=NCCN1`, the T/C is, setting by setting: (dose: 25.0 mg/kg/injection, schedule: Q04DX004 (sc), vehicle: saline) 84 % of control; under setting [1], 154 % of control; under setting [2], 124 % of control.

As to `C/C(=N/NC(N)=S)c1ccc2ccccc2c1`, the T/C runs as follows: (dose: 12.5 mg/kg/injection, schedule: Q01DX010 (sc), vehicle: saline with Tween-80) 177 % of control; (dose: 25.0 mg/kg/injection, schedule: Q01DX010 (sc), vehicle: saline with Tween-80) 70 % of control; (dose: 50.0 mg/kg/injection, schedule: Q01DX010 (sc), vehicle: saline with Tween-80) 57 % of control; (dose: 100.0 mg/kg/injection, schedule: Q01DX010 (sc), vehicle: saline with Tween-80) 89 % of control.

Consider `O=[N+]([O-])O.[Ga]`, for which the T/C by setting is: under setting [1], 99 % of control; under setting [2], 66 % of control; under setting [3], 80 % of control; (dose: 400.0 mg/kg/injection, schedule: Q04DX004 (sc), vehicle: saline) 103 % of control.

Regarding `NC1=NC(=O)N2CC12` (centres undefined), the T/C was 103 % of control under setting [1], 85 % of control under setting [2] and 79 % of control under setting [3].

Take `Cc1cc(NCCN(C(C)C)C(C)C)nc(/N=C(\N)Nc2ccc(Cl)c(C(F)(F)F)c2)n1`: the T/C is, setting by setting: (dose: 20.0 mg/kg/injection, schedule: Q04DX004 (sc), vehicle: Klucel (hydroxypropylcellulose) (HPC)) 62 % of control; (dose: 40.0 mg/kg/injection, schedule: Q04DX004 (sc), vehicle: Klucel (hydroxypropylcellulose) (HPC)) 51 % of control; (dose: 80.0 mg/kg/injection, schedule: Q04DX004 (sc), vehicle: Klucel (hydroxypropylcellulose) (HPC)) 78 % of control; (dose: 160.0 mg/kg/injection, schedule: Q04DX004 (sc), vehicle: Klucel (hydroxypropylcellulose) (HPC)) 62 % of control.

Regarding `Cc1ccc(N)c(N)c1`, the T/C was 151 % of control (dose: 200.0 mg/kg/injection, schedule: Q04DX004 (sc), vehicle: saline with Tween-80); 85 % of control (dose: 400.0 mg/kg/injection, schedule: Q04DX004 (sc), vehicle: saline with Tween-80); 124 % of control (dose: 800.0 mg/kg/injection, schedule: Q04DX004 (sc), vehicle: saline with Tween-80).

Take `[Cl][Pt+2][Cl].[NH-]CC1(C[NH-])CCC1`: the T/C runs as follows: (dose: 12.5 mg/kg/injection, schedule: Q04DX004 (sc), vehicle: suspension in saline) 87 % of control; (dose: 25.0 mg/kg/injection, schedule: Q04DX004 (sc), vehicle: suspension in saline) 61 % of control.

In the case of `Cc1cc(NCCCCCCNc2cc(C)nc3cc(N(C)C)ccc23)c2ccc(N(C)C)cc2n1`, the T/C is 112 % of control (dose: 37.5 mg/kg/injection, schedule: Q04DX004 (sc), vehicle: distilled water + Tween-80 + alcohol) and 42 % of control (dose: 75.0 mg/kg/injection, schedule: Q04DX004 (sc), vehicle: distilled water + Tween-80 + alcohol).

For `C[n+]1c(/C=C\C=C\N2CCCCC2)sc2ccccc21`, the T/C is 84 % of control (dose: 1.5 mg/kg/injection, schedule: Q04DX004 (sc), vehicle: Klucel (hydroxypropylcellulose) (HPC)) and 41 % of control (dose: 3.0 mg/kg/injection, schedule: Q04DX004 (sc), vehicle: Klucel (hydroxypropylcellulose) (HPC)).

As to `O=S(=O)(c1ccccc1)N1CN2CCN(C2)C1`, the T/C runs as follows: (dose: 225.0 mg/kg/injection, schedule: Q04DX004 (sc), vehicle: saline with Tween-80) 58 % of control; (dose: 450.0 mg/kg/injection, schedule: Q04DX004 (sc), vehicle: saline with Tween-80) 75 % of control; (dose: 900.0 mg/kg/injection, schedule: Q04DX004 (sc), vehicle: saline with Tween-80) 90 % of control.

In the case of `Cc1c2ccncc2c(C)c2c1[nH]c1ccccc12`, the T/C runs as follows: (dose: 12.5 mg/kg/injection, schedule: Q01DX010 (sc), vehicle: saline) 70 % of control; (dose: 25.0 mg/kg/injection, schedule: Q01DX010 (sc), vehicle: saline) 47 % of control.

Consider `CCCCCC[C@@H](O)C/C=C\CCCCCCCC(=O)OCCO`, for which the T/C (dose: 300.0 mg/kg/injection, schedule: Q04DX004 (sc), vehicle: saline) was 21 % of control; the T/C (dose: 600.0 mg/kg/injection, schedule: Q04DX004 (sc), vehicle: saline) was 155 % of control; the T/C (dose: 1200.0 mg/kg/injection, schedule: Q04DX004 (sc), vehicle: saline) is 169 % of control; the T/C (dose: 2400.0 mg/kg/injection, schedule: Q04DX004 (sc), vehicle: saline) is 230 % of control.

As to `O=S(=O)(SC(S(=O)(=O)c1ccccc1)S(=O)(=O)c1ccccc1)c1ccccc1`, the T/C by setting is: under setting [4], 246 % of control; (dose: 200.0 mg/kg/injection, schedule: Q04DX004 (sc), vehicle: Klucel (hydroxypropylcellulose) (HPC)) 203 % of control; (dose: 400.0 mg/kg/injection, schedule: Q04DX004 (sc), vehicle: Klucel (hydroxypropylcellulose) (HPC)) 246 % of control.

Regarding `CC(=O)OCc1cc(=O)n(C)c2c3c4c(cc12)c(C)cc(=O)n4CO3`, the T/C (dose: 25.0 mg/kg/injection, schedule: Q01DX010 (sc), vehicle: Klucel (hydroxypropylcellulose) (HPC)) is 99 % of control; the T/C (dose: 50.0 mg/kg/injection, schedule: Q01DX010 (sc), vehicle: Klucel (hydroxypropylcellulose) (HPC)) is 105 % of control; the T/C (dose: 100.0 mg/kg/injection, schedule: Q01DX010 (sc), vehicle: Klucel (hydroxypropylcellulose) (HPC)) was 59 % of control; the T/C (dose: 200.0 mg/kg/injection, schedule: Q01DX010 (sc), vehicle: Klucel (hydroxypropylcellulose) (HPC)) was 34 % of control.

`O=C(O)CSc1c(Cl)c(=O)oc2ccc(Cl)cc12`: the T/C (dose: 300.0 mg/kg/injection, schedule: Q04DX004 (sc), vehicle: Klucel (hydroxypropylcellulose) (HPC)) was 99 % of control.

Regarding `CC[C@](O)(C(=O)O)c1cc2n(c(=O)c1CO)Cc1cc3ccccc3nc1-2`, the T/C by setting is: (dose: 31.25 mg/kg/injection, schedule: Q04DX004 (sc), vehicle: saline) 7 % of control; (dose: 62.5 mg/kg/injection, schedule: Q04DX004 (sc), vehicle: saline) -10 % of control; (dose: 125.0 mg/kg/injection, schedule: Q04DX004 (sc), vehicle: saline) -46 % of control.

Turning to `CC(C)NCC(O)COc1ccc(O)c(O)c1` (centres undefined), the T/C is, setting by setting: (dose: 3.0 mg/kg/injection, schedule: Q04DX004 (sc), vehicle: saline) 107 % of control; (dose: 6.0 mg/kg/injection, schedule: Q04DX004 (sc), vehicle: saline) 103 % of control; (dose: 12.0 mg/kg/injection, schedule: Q04DX004 (sc), vehicle: saline) 164 % of control.

As for `COc1ccc(Cl)[n+]([O-])n1`, the T/C reads like this: (dose: 50.0 mg/kg/injection, schedule: Q04DX004 (sc), vehicle: Klucel (hydroxypropylcellulose) (HPC)) 64 % of control; under setting [4], 66 % of control.

With `CC(/C=C/c1ccccc1)=Nc1ccccc1`, the T/C (dose: 75.0 mg/kg/injection, schedule: Q04DX004 (sc), vehicle: saline with Tween-80) was 58 % of control; the T/C (dose: 150.0 mg/kg/injection, schedule: Q04DX004 (sc), vehicle: saline with Tween-80) was 98 % of control; the T/C (dose: 300.0 mg/kg/injection, schedule: Q04DX004 (sc), vehicle: saline with Tween-80) was 50 % of control; the T/C (dose: 600.0 mg/kg/injection, schedule: Q04DX004 (sc), vehicle: saline with Tween-80) was 63 % of control.
